This is an account of results in publication PMC8379681 (Cell reports, 2021).

This assay deals with SPAK (Homo sapiens, UniProt Q9UEW8). The assay is classed as biochemical.

The IC50 is the midpoint of a concentration-inhibition curve. A higher IC50 goes with lower potency. Take `Nc1ncnc2occ(-c3ccc(NC(=O)Nc4cc(C(F)(F)F)ccc4F)cc3)c12` [YU252, YU239252]: the concentration for half-maximal inhibition (IC50) was found to be 8.23 µM.
